Active and inactive are the calls of the source.
Key:
[1] = molecular target: DNA dC->dU-editing enzyme APOBEC-3A (Homo sapiens, UniProt P31941); test: Dose Response confirmation of small molecule APOBEC3A DNA Deaminase Inhibitors via a fluorescence-based single-stranded DNA deaminase assay. [Related pubchem assays (depositor defined):AID493011, AID493024]; assay type: functional
[2] = molecular target: DNA dC->dU-editing enzyme APOBEC-3G (Homo sapiens, UniProt Q9HC16); assay type: functional;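 further: Dose-response counterscreen measuring inhibition of APOBEC3G DNA deaminase activity, run while confirming APOBEC3A inhibitors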
DNA dC->dU-editing enzyme APOBEC-3G, sequence (Q9HC16 whole entry): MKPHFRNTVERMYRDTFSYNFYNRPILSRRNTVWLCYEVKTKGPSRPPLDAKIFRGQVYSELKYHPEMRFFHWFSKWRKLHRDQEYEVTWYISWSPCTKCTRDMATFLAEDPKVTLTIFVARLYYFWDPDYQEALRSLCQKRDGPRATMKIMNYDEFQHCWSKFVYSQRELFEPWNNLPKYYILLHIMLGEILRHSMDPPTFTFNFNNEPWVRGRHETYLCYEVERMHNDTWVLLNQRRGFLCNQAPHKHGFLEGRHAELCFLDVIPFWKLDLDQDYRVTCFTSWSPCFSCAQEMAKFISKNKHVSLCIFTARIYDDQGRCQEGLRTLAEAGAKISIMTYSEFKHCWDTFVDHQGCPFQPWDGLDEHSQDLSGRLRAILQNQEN

Cytochrome P450 2C9 = Cytochrome P450 2C9 (Homo sapiens, UniProt P11712)
Cytochrome P450 2C9, sequence (P11712 whole entry): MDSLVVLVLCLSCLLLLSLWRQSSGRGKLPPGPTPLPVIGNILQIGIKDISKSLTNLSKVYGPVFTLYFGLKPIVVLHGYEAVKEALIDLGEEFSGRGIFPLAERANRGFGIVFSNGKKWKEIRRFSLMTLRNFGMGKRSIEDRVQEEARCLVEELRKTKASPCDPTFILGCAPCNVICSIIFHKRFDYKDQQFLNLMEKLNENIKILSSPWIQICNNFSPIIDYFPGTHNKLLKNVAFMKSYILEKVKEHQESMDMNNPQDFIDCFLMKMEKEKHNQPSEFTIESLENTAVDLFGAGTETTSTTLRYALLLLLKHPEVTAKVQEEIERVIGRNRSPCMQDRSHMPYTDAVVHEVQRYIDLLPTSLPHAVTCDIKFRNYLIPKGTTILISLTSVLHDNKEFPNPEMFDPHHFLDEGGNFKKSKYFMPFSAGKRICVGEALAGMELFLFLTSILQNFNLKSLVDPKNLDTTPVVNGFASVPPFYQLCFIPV

[3] = THP-1 cell cytotoxicity, dose response, cytotoxicity control for Vif-APOBEC3G degradation inhibitor project, THP-1 cells (AID 1117359); assay type: functional; settings: Human immunodeficiency virus 1, THP-1
[4] = Jurkat T cell cytotoxicity, dose response, cytotoxicity control for P. falciparum gametocyte viability project, luminescence (AID 1117277); assay type: functional, cell-based;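 further: potency reflects loss of cellular ATP meaning fewer viable cells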
[5] = P. falciparum late gametocyte killing, dose response, luminescence (AID 1117278); assay type: functional, cell-based;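 further: gametocytes exposed to compound for 24 hours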
[6] = molecular target: T1, Mannose-6-phosphate isomerase (Homo sapiens, UniProt P34949); test: human PMI inhibitors, high substrate, primary screen, biochemical, fluorescence intensity, high mannose 6-phosphate (AID 1220)
T1 sequence (P34949 whole entry): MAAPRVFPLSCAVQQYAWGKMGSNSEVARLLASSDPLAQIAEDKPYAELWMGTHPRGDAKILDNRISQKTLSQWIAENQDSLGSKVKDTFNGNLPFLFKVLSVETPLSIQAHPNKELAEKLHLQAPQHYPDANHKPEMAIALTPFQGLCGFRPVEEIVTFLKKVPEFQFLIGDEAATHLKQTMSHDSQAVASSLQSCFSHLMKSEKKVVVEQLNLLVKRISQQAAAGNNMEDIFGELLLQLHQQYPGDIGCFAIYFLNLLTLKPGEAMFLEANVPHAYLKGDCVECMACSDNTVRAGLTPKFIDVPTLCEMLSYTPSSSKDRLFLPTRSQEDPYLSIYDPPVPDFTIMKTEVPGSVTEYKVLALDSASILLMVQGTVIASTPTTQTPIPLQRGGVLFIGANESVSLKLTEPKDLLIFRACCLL

[7] = molecular target: T2, Apoptotic protease-activating factor 1 (Homo sapiens, UniProt O14727); assay type: functional
T2 sequence (O14727 whole entry): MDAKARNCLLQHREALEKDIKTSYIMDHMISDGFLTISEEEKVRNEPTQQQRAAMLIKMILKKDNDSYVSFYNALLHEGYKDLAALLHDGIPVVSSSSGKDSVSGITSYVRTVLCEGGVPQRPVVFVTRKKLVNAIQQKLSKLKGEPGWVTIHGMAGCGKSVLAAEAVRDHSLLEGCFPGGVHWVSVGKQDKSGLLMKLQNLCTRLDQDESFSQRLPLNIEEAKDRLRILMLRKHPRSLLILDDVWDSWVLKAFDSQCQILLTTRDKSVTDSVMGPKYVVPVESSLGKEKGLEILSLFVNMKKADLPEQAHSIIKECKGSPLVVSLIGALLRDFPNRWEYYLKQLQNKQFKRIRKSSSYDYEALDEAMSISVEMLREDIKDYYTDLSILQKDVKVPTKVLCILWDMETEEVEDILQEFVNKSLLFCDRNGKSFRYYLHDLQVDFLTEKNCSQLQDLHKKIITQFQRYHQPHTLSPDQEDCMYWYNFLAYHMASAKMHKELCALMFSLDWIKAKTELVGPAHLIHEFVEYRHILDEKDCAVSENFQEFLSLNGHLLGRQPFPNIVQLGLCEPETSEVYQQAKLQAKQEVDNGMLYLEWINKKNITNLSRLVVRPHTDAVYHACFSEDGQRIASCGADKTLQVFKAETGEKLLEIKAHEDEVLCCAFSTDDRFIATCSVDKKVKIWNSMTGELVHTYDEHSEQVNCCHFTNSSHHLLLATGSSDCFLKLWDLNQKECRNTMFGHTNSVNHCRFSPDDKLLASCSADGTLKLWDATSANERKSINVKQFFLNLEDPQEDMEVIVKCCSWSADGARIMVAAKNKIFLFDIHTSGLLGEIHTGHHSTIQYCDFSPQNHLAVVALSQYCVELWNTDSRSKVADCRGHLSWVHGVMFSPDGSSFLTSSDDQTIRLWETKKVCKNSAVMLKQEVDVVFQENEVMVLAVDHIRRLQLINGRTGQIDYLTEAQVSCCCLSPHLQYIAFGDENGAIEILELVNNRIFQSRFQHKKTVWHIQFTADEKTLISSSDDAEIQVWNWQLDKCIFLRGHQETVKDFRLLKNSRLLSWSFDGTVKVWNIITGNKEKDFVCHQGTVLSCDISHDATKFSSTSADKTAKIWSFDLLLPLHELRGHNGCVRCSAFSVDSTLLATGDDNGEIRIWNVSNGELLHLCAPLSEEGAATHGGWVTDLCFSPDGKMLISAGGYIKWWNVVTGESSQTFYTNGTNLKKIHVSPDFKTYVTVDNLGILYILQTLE

Protein RecA = molecular target: T3, Protein RecA (Mycobacterium tuberculosis, UniProt P9WHJ3); test: Fluorescence Cell-Free Homogeneous Dose Retest to Identify Inhibitors of RecA-Intein Splicing Activity. [Related pubchem assays (depositor defined):AID2097, AID2223, AID489010, AID492950]; assay type: functional
T3 sequence (P9WHJ3 whole entry): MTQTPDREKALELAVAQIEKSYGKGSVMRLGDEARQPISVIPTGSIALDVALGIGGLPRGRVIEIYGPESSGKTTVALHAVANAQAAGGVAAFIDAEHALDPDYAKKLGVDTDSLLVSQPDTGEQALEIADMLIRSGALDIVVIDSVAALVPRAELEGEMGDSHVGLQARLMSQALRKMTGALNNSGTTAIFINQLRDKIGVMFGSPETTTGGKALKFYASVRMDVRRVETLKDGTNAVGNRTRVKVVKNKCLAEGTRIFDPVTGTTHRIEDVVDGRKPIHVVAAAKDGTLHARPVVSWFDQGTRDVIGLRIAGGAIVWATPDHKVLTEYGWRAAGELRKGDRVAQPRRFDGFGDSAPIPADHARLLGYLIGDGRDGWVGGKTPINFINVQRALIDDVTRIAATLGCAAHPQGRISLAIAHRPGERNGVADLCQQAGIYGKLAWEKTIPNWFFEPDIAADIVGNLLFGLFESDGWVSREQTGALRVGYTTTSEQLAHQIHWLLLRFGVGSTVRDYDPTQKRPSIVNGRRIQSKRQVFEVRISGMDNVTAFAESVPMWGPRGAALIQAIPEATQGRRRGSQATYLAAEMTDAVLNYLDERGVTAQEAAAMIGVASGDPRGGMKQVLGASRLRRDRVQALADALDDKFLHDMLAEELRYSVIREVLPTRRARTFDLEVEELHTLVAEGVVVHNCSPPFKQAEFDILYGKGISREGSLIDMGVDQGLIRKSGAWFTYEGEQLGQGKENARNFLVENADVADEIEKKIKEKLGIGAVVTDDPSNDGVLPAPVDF

[8] = molecular target: Glucose-6-phosphate 1-dehydrogenase (Homo sapiens, UniProt P11413); test: human G6PD enzyme inhibitors, dose response, selectivity assay for P. falciparum G6PD inhibitor project, biochemical, fluorescence (AID 504792); assay type: functional
Glucose-6-phosphate 1-dehydrogenase, sequence (P11413 whole entry): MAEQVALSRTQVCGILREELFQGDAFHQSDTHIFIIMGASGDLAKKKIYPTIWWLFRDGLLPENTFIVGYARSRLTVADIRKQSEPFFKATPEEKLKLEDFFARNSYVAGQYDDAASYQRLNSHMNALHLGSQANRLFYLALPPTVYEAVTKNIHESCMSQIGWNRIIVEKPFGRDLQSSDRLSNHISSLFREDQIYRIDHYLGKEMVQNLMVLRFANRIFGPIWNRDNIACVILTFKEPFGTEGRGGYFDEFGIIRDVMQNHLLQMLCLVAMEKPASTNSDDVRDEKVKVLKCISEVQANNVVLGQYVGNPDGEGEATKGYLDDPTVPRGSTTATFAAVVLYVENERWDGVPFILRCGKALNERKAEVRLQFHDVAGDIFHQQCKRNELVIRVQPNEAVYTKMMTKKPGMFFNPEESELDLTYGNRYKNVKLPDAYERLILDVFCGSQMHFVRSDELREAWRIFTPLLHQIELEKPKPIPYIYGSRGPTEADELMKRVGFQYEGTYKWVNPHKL

HT-1080 = test: cytotoxicity in HT1080 fibrosarcoma cells, cell-based, fluorescence readout (AID 620); assay type: functional; settings: Homo sapiens
[9] = molecular target: Luciferin 4-monooxygenase (Photinus pyralis, UniProt P08659); test: Counter Screen for Luciferase-based Assay Positives. [Related pubchem assays: 620, 618, 411 ]
Luciferin 4-monooxygenase, sequence (P08659 whole entry): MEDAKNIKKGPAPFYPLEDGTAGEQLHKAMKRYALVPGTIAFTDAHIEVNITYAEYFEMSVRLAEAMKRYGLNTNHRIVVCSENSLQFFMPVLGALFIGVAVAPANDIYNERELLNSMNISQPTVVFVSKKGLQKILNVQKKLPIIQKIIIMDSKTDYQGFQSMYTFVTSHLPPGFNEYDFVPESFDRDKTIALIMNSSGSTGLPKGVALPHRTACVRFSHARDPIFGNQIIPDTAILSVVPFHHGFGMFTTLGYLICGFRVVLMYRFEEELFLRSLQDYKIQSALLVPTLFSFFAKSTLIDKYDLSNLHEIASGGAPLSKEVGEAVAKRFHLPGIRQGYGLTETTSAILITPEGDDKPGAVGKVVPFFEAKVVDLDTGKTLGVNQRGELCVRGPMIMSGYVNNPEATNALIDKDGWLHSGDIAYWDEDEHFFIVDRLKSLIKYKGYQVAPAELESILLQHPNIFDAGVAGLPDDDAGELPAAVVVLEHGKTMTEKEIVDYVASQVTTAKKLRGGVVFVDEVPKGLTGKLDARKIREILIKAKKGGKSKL

[10] = inhibitors of Vif binding to APOBEC3G peptide, primary screen, biochemical, TR-FRET, GST-Vif 1-94, biotin-A3G peptide, dose response retest (AID 1117319); assay type: functional;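 further: TR-FRET signal of purified GST-Vif binding a biotinylated A3G peptide; inhibitors lower the FRET signal by blocking Vif and A3G binding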
[11] = system: Streptococcus sp. 'group A'; test: growth inhibition of control SK(-) GAS strain, dose response, counter-screen for streptokinase expression inhibitor project, luminescence, kanamycin, BacTiterGlo, confirmation (AID 1900); assay type: functional, organism-based
Streptokinase A = molecular target: T4, Streptokinase A (Streptococcus pyogenes serotype M1, UniProt P10520); test: S. pyogenes streptokinase expression inhibitors, potency, dose response, plasminogen activation absorbance, OD405 (AID 1914); assay type: functional, Streptococcus pyogenes M1 GAS;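 further: secreted streptokinase activity via plasminogen activation per viability signal from cell pellet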
T4 sequence (P10520 whole entry): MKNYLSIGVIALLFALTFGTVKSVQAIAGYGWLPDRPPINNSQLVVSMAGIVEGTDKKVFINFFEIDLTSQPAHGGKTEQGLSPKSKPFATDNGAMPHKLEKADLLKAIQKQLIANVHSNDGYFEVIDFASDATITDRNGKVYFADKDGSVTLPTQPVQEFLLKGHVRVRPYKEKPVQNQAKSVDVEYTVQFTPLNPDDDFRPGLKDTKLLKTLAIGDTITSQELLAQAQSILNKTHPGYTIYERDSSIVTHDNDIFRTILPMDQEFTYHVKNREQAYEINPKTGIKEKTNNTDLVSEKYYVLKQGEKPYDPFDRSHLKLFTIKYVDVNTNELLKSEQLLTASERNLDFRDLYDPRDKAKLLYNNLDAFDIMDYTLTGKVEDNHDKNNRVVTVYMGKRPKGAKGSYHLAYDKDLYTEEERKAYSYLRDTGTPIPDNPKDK

Streptococcus = test: Group A Streptococcus viability loss, dose response, counter-screen for streptokinase expression inhibitor project, luminescence, BacTiterGlo (AID 1915); assay type: functional, organism-based;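 further: potency for reduction of bacterial viability or growth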
Estrogen receptor beta = Estrogen receptor beta (Homo sapiens, UniProt Q92731);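 further: recombinant ER-beta bound to coactivator SRC1 peptide in presence of estradiol agonist; inhibitors block coactivator peptide binding and lower the FRET signal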
Estrogen receptor beta, sequence (Q92731 whole entry): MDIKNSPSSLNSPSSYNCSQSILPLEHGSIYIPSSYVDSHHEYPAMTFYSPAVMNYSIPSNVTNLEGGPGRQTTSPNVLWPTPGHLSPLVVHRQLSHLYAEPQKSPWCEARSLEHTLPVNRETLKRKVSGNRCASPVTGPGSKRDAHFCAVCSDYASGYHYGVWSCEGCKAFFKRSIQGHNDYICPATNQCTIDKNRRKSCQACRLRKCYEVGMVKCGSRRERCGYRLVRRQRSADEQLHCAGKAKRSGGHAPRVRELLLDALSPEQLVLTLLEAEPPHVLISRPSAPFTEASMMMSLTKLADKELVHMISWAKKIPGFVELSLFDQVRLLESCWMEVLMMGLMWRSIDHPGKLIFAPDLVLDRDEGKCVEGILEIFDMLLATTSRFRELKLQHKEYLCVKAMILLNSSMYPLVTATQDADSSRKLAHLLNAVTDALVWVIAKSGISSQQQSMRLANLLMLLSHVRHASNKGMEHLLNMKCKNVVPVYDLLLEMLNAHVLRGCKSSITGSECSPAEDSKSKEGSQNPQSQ

[12] = A Cell Based Secondary Assay To Explore Cytotoxicity of Compounds that Sensitize Mycobacterium Tuberculosis to Beta-Lactam Antibiotics.; assay type: functional
[13] = cytotoxicity in HEK-293T cells, dose response, cytotoxicity control for BCR NF-kB inhibitor project, luminescence, B-cell screen hits (AID 489021); assay type: functional, cell-based;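 further: HEK-293T cells carrying an NF-kB luciferase reporter; cells exposed to compound for about 14 hours before viability readout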
[14] = cytotoxicity in HEK-293T cells, dose response, cytotoxicity control for TCR NF-kB inhibitor project, luminescence, T-cell screen hits (AID 489026); assay type: functional, cell-based;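 further: cells exposed to compound about 14 hours before the viability readout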
[15] = molecular target: Eukaryotic translation initiation factor 4E (Mus musculus, UniProt P63073); test: eIF4E–eIF4G protein interaction inhibitors, dose response, biochemical, TR-FRET (AID 855); assay type: functional;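 further: potency for disrupting eIF4E binding to eIF4GI seen as loss of FRET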
Eukaryotic translation initiation factor 4E, sequence (P63073 whole entry): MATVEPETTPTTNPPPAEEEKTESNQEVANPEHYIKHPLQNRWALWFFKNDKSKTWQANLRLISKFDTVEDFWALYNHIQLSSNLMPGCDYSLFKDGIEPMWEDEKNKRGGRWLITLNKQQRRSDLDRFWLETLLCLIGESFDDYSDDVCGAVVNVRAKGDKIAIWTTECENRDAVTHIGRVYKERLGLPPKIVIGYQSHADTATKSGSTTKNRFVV

[16] = molecular target: T5, Rac GTPase-activating protein 1 (Homo sapiens, UniProt Q9H0H5); test: MgcRacGAP GTPase-activating activity inhibitors, confirmation, biochemical, ADP Hunter fluorescence, primary and confirmatory (AID 624330); assay type: functional
T5 sequence (Q9H0H5 whole entry): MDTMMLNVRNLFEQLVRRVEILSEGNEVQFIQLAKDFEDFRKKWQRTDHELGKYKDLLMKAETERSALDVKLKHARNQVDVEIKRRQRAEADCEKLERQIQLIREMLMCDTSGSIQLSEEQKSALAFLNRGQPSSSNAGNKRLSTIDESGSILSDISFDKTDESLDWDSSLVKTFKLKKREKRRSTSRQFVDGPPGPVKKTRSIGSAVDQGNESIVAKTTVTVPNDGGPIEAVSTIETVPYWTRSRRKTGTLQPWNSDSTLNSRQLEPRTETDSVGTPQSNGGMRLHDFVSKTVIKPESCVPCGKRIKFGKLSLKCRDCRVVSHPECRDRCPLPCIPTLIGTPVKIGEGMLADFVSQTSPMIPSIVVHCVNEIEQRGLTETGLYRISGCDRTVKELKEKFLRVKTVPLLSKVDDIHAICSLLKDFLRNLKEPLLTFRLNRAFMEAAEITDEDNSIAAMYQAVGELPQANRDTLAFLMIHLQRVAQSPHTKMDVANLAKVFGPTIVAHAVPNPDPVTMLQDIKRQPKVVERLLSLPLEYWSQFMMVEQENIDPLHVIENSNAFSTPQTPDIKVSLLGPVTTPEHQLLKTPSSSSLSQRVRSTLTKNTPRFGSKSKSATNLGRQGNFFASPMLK

DNA dC->dU-editing enzyme APOBEC-3A, sequence (P31941 whole entry): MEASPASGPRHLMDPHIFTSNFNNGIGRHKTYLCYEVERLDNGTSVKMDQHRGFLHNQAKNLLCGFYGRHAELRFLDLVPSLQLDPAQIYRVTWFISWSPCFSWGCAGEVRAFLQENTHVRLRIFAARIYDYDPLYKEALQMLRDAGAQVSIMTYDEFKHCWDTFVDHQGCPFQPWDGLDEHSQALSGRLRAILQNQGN

O=C(COc1ccccc1/C=C1/NC(=O)NC1=O)Nc1ccccc1
IC50 [1]: 3.71 µM (active)
IC50 [2]: 3.26 µM (active)

CCOC(=O)c1nc(O)c2c(C)c(C)sc2n1
AC50 (Cytochrome P450 2C9): 20 µM (inconclusive)
CC50 [3]: > 40 µM (active)

CCC(C)Sc1nc2c(c(=O)[nH]c(=O)n2C)n1CC(O)COc1ccccc1C (stereo not drawn)
IC50 [4]: > 83.3 µM (inactive)
IC50 [5]: > 109 µM (inactive)

CC(=O)OCCCn1c(C)[n+](C)c2cc(Cl)c(Cl)cc21
IC50 [1]: 2.27 µM (active)
IC50 [2]: 2.41 µM (active)

CCCCCn1c(N)c(C(=O)NCc2cccs2)c2nc3ccccc3nc21
IC50 [6]: > 50 µM (not active)
IC50 [7]: 53.7 µM (active)
EC50 (Protein RecA): 1.24 µM (active)

CC1=CC(C)(C)[N+](C)(C)c2ccc(C)cc21
IC50 [1]: 2.06 µM (active)
IC50 [2]: 3.44 µM (active)

CCN(CC)CCCN1C(=O)CSC1c1ccc2c(c1)OCO2 (stereo not drawn)
IC50 [4]: > 83.3 µM (inactive)
IC50 [5]: > 109 µM (inactive)

CCC(c1ccc(O)c(O)c1)C(CC)c1ccc(O)c(O)c1 (stereo not drawn)
IC50 [8]: > 80 µM (inactive)
CC50 [3]: 11.7 µM (active)

Cc1c(C(=O)NCC2CCCO2)oc2ccc3c(c12)C(=O)CC(C)(C)O3 (stereo not drawn)
EC50 (HT-1080): > 50 µM (not active)
EC50 [9]: 0.54 µM (active)

CCC(Sc1nc2cc(OC)c(OC)cc2c(=O)n1Cc1ccco1)C(=O)NCCOC (stereo not drawn)
IC50 [10]: > 100 µM (active)

COC(=O)c1c[nH]nc1N=C(S)Nc1ccc(C)cc1Cl
EC50 [11]: 51.6 µM (active)
IC50 [10]: > 100 µM (active)
EC50 (Streptokinase A): 56.8 µM (active)
EC50 (Streptococcus): > 150 µM (not active)

CC(=O)OC(COC1C[C@@H]2CC[C@@]1(C)C2(C)C)C[N+]1(C)CCCCC1 (stereo partly drawn)
IC50 [1]: 1.91 µM (active)
IC50 [2]: 3.55 µM (active)

CN(CC(O)COc1ccc(S(=O)(=O)N2CCOCC2)cc1)C1CCCCC1 (stereo not drawn)
IC50 (Estrogen receptor beta): > 50 µM (not active)

COc1ccc(CC(=O)Nc2ccc(C(N)=O)cc2)cc1
IC50 [4]: > 83.3 µM (inactive)
IC50 [5]: > 109 µM (inactive)

O=C(Cn1cnc2c(nnn2Cc2ccc(Cl)cc2)c1=O)NCc1ccco1
IC50 [10]: > 100 µM (active)

CC(=O)c1sc(NC(=O)C2CCN(C(=O)c3ccccc3C)CC2)nc1-c1ccccc1
CC50 [3]: > 40 µM (active)

COCCCn1c(=O)/c(=C\c2cccc(OC)c2OC)s/c1=C(/C#N)C(=O)Nc1ccc(C(=O)O)cc1
CC50 [12]: > 40 µM (active)
IC50 [13]: > 80 µM (inactive)

Oc1cc(-c2ccccc2)nc2ccccc12
IC50 [14]: > 80 µM (inactive)
IC50 [15]: > 64 µM (inactive)

Sc1nnc(-c2ccco2)n1/N=C/c1ccc(Cl)cc1
IC50 [16]: 58.3 µM (active)
IC50 [15]: > 64 µM (inactive)

Cc1ccc2c(c1)N=C(c1ccc(Cl)cc1)CO2
IC50 [10]: > 100 µM (active)

Reference: ChEMBL document CHEMBL1201862, “PubChem BioAssay data set” (2004)
